Experimental data taken from ChEMBL document CHEMBL1201862, “PubChem BioAssay data set” (2004).
Activity calls are given as the source filed them.

Columns and labels:
[1] = biological target: T1, Adenosylmethionine-8-amino-7-oxononanoate aminotransferase (Mycobacterium tuberculosis, UniProt P9WQ81); experiment: Mycobacterium tuberculosis BioA enzyme inhibitor Measured in Biochemical System Using Plate Reader - 2163-02_Inhibitor_Dose_CherryPick_Activity.; format: functional, Mycobacterium tuberculosis UT205
T1 sequence (P9WQ81 whole entry): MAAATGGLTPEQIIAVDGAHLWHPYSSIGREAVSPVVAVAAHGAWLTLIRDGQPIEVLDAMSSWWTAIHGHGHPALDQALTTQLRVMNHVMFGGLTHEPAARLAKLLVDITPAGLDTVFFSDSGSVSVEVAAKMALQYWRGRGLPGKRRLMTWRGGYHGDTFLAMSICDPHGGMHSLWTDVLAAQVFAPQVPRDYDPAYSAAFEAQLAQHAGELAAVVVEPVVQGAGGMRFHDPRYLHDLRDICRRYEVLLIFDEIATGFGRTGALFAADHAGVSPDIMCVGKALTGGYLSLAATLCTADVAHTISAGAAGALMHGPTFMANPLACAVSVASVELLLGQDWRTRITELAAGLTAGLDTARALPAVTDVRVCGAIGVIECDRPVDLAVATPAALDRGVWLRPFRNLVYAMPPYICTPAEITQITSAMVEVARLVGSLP

[2] = biological target: T2, Long-chain-fatty-acid--AMP ligase FadD28 (Mycobacterium tuberculosis, UniProt P9WQ59); experiment: Fluorescence polarization aasay to screen for inhibitors that compete for the binding of FadD28 to a bisubstrate Measured in Biochemical System Using Plate Reader - 2147-01_Inhibitor_Dose_CherryPick_Activity.; format: functional, Mycobacterium tuberculosis H37Rv
T2 sequence (P9WQ59 whole entry): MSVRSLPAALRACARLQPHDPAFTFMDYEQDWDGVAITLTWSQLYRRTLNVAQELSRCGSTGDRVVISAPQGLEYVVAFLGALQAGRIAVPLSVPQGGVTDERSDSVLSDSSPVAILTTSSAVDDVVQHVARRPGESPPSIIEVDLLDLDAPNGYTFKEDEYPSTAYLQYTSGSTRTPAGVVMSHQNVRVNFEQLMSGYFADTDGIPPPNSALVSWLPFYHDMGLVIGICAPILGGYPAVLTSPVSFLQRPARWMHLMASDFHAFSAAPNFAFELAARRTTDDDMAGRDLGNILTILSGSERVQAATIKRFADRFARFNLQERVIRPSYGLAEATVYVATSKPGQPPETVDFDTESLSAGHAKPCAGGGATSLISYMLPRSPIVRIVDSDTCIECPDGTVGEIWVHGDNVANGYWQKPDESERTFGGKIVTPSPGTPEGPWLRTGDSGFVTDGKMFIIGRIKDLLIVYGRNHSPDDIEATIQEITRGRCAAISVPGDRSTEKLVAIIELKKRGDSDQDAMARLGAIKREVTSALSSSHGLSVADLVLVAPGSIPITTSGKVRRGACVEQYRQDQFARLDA

[3] = biological target: T3, DNA repair protein RAD52 homolog (Homo sapiens, UniProt P43351); format: functional, biochemical
T3 sequence (P43351 whole entry): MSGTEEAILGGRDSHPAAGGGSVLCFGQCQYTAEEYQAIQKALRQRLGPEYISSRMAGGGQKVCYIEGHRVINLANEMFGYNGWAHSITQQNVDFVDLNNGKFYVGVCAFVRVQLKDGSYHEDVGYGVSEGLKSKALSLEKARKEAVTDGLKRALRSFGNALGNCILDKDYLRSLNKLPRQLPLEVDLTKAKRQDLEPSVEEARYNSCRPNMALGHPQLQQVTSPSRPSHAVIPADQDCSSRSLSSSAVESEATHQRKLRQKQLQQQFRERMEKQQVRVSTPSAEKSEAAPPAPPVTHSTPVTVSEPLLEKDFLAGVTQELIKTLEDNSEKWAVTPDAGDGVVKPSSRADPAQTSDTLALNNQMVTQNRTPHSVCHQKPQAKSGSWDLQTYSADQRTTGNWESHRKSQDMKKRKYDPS

HEK293 [4] = experiment: optical interference in Abeta FP readout, dose response, artefact control for IDE activator project, biochemical, fluorescence polarization (AID 588442); format: functional, cell-based; settings: Homo sapiens
[5] = HEp-2 cell cytotoxicity, dose response, cytotoxicity control for RSV inhibitor project, HTS (AID 2410); format: functional; settings: human respiratory syncytial virus
[6] = biological target: T4, Ubiquitin-conjugating enzyme E2 N (Homo sapiens, UniProt P61088); format: functional
T4 sequence (P61088 whole entry): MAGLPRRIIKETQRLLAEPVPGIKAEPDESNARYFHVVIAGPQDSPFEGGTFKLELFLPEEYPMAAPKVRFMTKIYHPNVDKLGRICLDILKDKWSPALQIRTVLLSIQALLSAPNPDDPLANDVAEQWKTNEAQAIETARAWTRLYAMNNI

[7] = biological target: T4, Ubiquitin-conjugating enzyme E2 N; format: functional; remark: listed apart in the source
HEK293 [8] = experiment: HEK cell cytotoxicity by LDH release, dose response, cytotoxicity control for IDE activator project, fluorescence, HEK cells (AID 588440); format: functional, cell-based, Homo sapiens; settings: Homo sapiens, HEK293;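 further: cytotoxicity by LDH release measuring loss of membrane integrity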
Bcl-2-related protein A1 = biological target: T5, Bcl-2-related protein A1 (Mus musculus, UniProt Q07440); format: functional;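 further: confirmatory dose–response counterscreen on Bfl-1, used to check hits from a UBC13 polyubiquitin inhibitor campaign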
T5 sequence (Q07440 whole entry): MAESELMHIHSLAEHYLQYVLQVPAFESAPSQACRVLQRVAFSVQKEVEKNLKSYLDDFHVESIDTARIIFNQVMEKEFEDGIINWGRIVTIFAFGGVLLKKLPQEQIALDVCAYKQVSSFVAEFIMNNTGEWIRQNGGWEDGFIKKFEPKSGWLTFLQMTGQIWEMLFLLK

[9] = biological target: Intestinal-type alkaline phosphatase (Mus musculus, UniProt P24822); experiment: PubChem AID 488785; format: functional
Sequence of Intestinal-type alkaline phosphatase (Mus musculus, UniProt P24822) (P24822 whole entry): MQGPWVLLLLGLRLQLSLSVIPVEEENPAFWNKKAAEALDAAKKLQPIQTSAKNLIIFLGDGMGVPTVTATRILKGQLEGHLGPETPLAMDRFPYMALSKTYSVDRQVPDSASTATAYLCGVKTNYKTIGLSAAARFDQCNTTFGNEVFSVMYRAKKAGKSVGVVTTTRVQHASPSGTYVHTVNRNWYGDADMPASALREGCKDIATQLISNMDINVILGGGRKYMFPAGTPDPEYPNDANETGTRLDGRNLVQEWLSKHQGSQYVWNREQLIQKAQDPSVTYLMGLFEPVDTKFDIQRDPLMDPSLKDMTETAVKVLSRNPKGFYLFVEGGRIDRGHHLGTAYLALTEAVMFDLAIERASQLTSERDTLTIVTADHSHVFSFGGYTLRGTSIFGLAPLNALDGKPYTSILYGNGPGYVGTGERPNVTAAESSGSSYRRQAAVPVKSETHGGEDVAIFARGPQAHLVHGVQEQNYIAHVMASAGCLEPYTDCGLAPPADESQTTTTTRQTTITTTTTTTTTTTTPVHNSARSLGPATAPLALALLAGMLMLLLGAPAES

[10] = biological target: Intestinal-type alkaline phosphatase (Homo sapiens, UniProt P09923); experiment: inhibition of human intestinal alkaline phosphatase – biochemical, dose response (AID 488876); format: functional
Sequence of Intestinal-type alkaline phosphatase (Homo sapiens, UniProt P09923) (P09923 whole entry): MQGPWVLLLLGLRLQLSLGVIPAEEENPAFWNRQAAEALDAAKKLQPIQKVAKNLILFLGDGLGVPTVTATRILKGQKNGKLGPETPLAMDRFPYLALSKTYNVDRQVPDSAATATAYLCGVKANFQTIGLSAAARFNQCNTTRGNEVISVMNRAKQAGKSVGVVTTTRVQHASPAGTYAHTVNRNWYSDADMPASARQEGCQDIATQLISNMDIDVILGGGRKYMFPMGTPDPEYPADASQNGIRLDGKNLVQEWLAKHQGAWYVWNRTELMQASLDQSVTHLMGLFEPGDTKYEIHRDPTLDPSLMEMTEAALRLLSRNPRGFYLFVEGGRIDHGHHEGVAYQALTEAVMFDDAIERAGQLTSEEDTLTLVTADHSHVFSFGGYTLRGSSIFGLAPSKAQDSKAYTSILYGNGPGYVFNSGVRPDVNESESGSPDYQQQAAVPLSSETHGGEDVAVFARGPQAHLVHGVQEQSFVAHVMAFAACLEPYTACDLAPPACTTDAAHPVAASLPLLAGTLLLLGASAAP

Insulin-degrading enzyme [11] = biological target: T6, Insulin-degrading enzyme (Homo sapiens, UniProt P14735); experiment: activators of recombinant IDE enzyme, dose response, counter-screen for IDE activator project, biochemical, fluorescence polarization (AID 588681)
T6 sequence (P14735 whole entry): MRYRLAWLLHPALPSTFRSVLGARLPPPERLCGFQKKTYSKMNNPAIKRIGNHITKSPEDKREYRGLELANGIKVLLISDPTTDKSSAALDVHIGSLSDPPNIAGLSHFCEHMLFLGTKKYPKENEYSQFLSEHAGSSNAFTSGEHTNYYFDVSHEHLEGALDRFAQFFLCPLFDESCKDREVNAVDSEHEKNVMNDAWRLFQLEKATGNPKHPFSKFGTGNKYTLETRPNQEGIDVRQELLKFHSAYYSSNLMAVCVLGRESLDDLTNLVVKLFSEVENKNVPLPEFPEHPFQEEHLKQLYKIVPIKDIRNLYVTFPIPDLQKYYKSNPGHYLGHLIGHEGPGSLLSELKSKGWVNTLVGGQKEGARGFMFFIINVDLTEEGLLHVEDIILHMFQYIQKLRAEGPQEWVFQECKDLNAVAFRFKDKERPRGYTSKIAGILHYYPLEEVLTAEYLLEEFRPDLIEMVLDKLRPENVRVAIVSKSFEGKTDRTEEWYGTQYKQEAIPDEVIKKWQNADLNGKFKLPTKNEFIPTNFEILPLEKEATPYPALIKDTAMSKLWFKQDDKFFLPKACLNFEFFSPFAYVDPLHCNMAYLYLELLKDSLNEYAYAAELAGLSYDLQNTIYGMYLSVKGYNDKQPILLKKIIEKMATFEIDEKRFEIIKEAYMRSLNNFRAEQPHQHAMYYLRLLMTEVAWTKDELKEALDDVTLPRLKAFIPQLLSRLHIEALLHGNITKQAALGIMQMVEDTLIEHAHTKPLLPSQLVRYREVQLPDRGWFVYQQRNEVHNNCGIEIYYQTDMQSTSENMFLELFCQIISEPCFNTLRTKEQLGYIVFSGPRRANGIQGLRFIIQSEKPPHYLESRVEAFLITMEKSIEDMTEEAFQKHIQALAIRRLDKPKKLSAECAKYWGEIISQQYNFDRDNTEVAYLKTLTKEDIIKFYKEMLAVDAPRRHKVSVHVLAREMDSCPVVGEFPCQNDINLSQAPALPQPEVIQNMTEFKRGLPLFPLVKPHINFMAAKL

[12] = biological target: T7, Alkaline phosphatase, tissue-nonspecific isozyme (Homo sapiens, UniProt P05186); experiment: TNAP enzyme inhibition by screening hits, dose response, selectivity assay for mouse IAP inhibitor project, biochemical, human TNAP, uHTS hits (AID 488906); format: functional
T7 sequence (P05186 whole entry): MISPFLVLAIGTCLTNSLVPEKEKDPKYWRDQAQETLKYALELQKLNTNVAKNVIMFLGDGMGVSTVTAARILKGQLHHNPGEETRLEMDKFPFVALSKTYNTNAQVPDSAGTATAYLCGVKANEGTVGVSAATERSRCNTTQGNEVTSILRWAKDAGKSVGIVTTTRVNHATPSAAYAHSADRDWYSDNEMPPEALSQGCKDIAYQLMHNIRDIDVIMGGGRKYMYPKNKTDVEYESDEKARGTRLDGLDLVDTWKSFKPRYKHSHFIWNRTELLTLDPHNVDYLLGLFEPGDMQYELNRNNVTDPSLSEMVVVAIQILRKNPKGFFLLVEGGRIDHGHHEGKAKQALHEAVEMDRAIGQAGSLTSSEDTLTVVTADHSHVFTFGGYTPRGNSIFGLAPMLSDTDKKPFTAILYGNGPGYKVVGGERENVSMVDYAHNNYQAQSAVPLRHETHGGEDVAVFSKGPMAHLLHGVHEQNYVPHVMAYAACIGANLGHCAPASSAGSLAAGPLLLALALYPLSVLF

Insulin-degrading enzyme [13] = biological target: T6, Insulin-degrading enzyme; experiment: activators of endogenous IDE in HEK cells, dose response, cell-based, fluorescence polarization (AID 588439); format: functional

For `COc1ccc(NC(=O)c2cnc(C)cn2)cc1-n1cnnn1`, the AC50 [1] was 0.733 µM (active).

With `COC(=O)c1ccc(NC(S)=NC2c3ccccc3CC2O)cc1` (configuration not stated) the AC50 [2] was 26.6 µM (active).

In the case of `CCN(CC)CCNC(=O)C(=O)NCC1OCCN1S(=O)(=O)c1cccs1` (configuration not stated), the AC50 [3] was 29.3 µM (active).

With `NCCCC[C@H]1CN=C(S)N1CCCCC1CCCCC1` the AC50 [3] was 10.9 µM (active).

For `COc1ccc(CCN(C)c2ccc(C(N)=O)cc2[N+](=O)[O-])cc1OC`, the AC50 [1] was 5.7 µM (active).

In the case of `Cc1ccc(NC(=O)CSCC(=O)Nc2sccc2C#N)cc1`, the AC50 [2] was 18.9 µM (active).

With `C#CCOCCOCCOCCNc1nc(N2CCN(C(=O)CCCCCCCCCCNC(=O)[C@@H](CCSC)n3cc(CCO)nn3)CC2)nc(N2CCN(C(=O)CCCCCCCCCCNC(=O)[C@H]([C@@H](C)CC)n3cc(CCCCN=C(N)N)nn3)CC2)n1` the EC50 (HEK293 [4]) was > 56 µM (inactive), the CC50 [5] was 16 µM (active) and the IC50 [6] was 5.82 µM (active). For the same compound, the IC50 [7] was 3.81 µM (active), the IC50 (HEK293 [8]) was 4.44 µM (active) and the IC50 (Bcl-2-related protein A1) was 5.51 µM (active). For the same compound, the IC50 [9] was 1.66 µM (active), the IC50 [10] was > 100 µM (inactive) and the EC50 (Insulin-degrading enzyme [11]) was 2.36 µM (active). The IC50 [12] was 58.7 µM (active) and the EC50 (Insulin-degrading enzyme [13]) was > 2.03 µM (active).
